In PubChem BioAssay AID1053203 (The Scripps Research Institute Molecular Screening Center, 2014):

Test: growth inhibition of Trypanosoma brucei – absorbance, round 2, provider-run, counter-screen for T. brucei MetRS inhibitor project, late-stage follow-up (AID 1053203)
Details: T. brucei Lister 427 bloodstream growth, AlamarBlue, 48 h

**Q.** What does the source list for `CCN(CC)C(=O)C(=O)c1cn(CC(=O)Nc2cc(C)cc(C(F)(F)F)c2)c2ccccc12`?
**A.** IC50 (run 1): 1720 nM; IC50 (run 2): 2090 nM

**Q.** Which IC50 (run 1) does the source give for `CCN(CC)C(=O)C(=O)c1cn(CC(=O)Nc2cc(C(F)(F)F)cc(C(F)(F)F)c2)c2ccccc12` here?
**A.** 2600 nM

**Q.** Which IC50 (run 1) does the source give for `CCN(CC)C(=O)C(=O)c1cn(CC(=O)Nc2cc(Cl)cc(C(F)(F)F)c2)c2ccccc12` here?
**A.** 2640 nM

**Q.** Which IC50 (run 1) does the source give for `CCN(CC)C(=O)C(=O)c1cn(CC(=O)Nc2cc(Oc3ccccc3)cc(C(F)(F)F)c2)c2ccccc12` here?
**A.** 1150 nM

**Q.** What about the IC50 (run 2) of the same compound?
**A.** 1070 nM

**Q.** For `CCN(CC)C(=O)C(=O)c1cn(CC(=O)Nc2cc(Br)cc(C(F)(F)F)c2)c2ccccc12`, which IC50 (run 1) is on record?
**A.** 3360 nM

**Q.** Which IC50 (run 1) does the source give for `CCN(CC)C(=O)C(=O)c1cn(CC(=O)Nc2cccc(C(F)(F)F)c2)c2cc(OC)ccc12` here?
**A.** > 10000 nM
